Data from PubChem BioAssay AID248 (DTP/NCI, 2004).
Where “and” joins values, the source holds several entries; their conditions need not be identical. Equal values may be shown once. Toxic doses and inconclusive results are not listed. Cut-off read from the data, not from the text of the source: active = T/C of 150% or more; inactive = T/C below 125%.

Tested on: L1210 leukemia ip in BDF1 mice, survival T/C
Test: NCI In Vivo Anticancer Drug Screen. Data for tumor model L1210 Leukemia (intraperitoneal) in B6D2F1 (BDF1) mice
Conditions: endpoint: mean survival time, higher = longer survival
Outline: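 Each compound was tested against a transplantable tumor grown in mice. The endpoint was survival, with treated animals benchmarked against vehicle controls as a simple ratio.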

[1] = dose: 12.5 mg/kg/injection, schedule: Q01DX009 (ip), vehicle: saline with Tween-80
[2] = dose: 25.0 mg/kg/injection, schedule: Q01DX009 (ip), vehicle: saline with Tween-80
[3] = dose: 25.0 mg/kg/injection, schedule: Q01DX009 (ip), vehicle: saline
[4] = dose: 50.0 mg/kg/injection, schedule: Q01DX009 (ip), vehicle: saline with Tween-80
[5] = dose: 100.0 mg/kg/injection, schedule: Q01DX001 (ip), vehicle: saline
[6] = dose: 200.0 mg/kg/injection, schedule: Q01DX001 (ip), vehicle: saline
[7] = dose: 400.0 mg/kg/injection, schedule: Q01DX001 (ip), vehicle: saline
[8] = dose: 100.0 mg/kg/injection, schedule: Q01DX001 (ip), vehicle: carboxymethylcellulose (CMC)
[9] = dose: 200.0 mg/kg/injection, schedule: Q01DX001 (ip), vehicle: carboxymethylcellulose (CMC)
[10] = dose: 400.0 mg/kg/injection, schedule: Q01DX001 (ip), vehicle: carboxymethylcellulose (CMC)
[11] = dose: 100.0 mg/kg/injection, schedule: Q01DX009 (ip), vehicle: Klucel (hydroxypropylcellulose) (HPC)
[12] = dose: 100.0 mg/kg/injection, schedule: Q04DX003 (ip), vehicle: Klucel (hydroxypropylcellulose) (HPC)
[13] = dose: 200.0 mg/kg/injection, schedule: Q01DX009 (ip), vehicle: Klucel (hydroxypropylcellulose) (HPC)
[14] = dose: 200.0 mg/kg/injection, schedule: Q04DX003 (ip), vehicle: Klucel (hydroxypropylcellulose) (HPC)
[15] = dose: 400.0 mg/kg/injection, schedule: Q01DX009 (ip), vehicle: Klucel (hydroxypropylcellulose) (HPC)
[16] = dose: 400.0 mg/kg/injection, schedule: Q04DX003 (ip), vehicle: Klucel (hydroxypropylcellulose) (HPC)
[17] = dose: 100.0 mg/kg/injection, schedule: Q01DX009 (ip), vehicle: saline
[18] = dose: 100.0 mg/kg/injection, schedule: Q04DX003 (ip), vehicle: saline
[19] = dose: 200.0 mg/kg/injection, schedule: Q01DX009 (ip), vehicle: saline
[20] = dose: 200.0 mg/kg/injection, schedule: Q04DX003 (ip), vehicle: saline
[21] = dose: 400.0 mg/kg/injection, schedule: Q01DX009 (ip), vehicle: saline
[22] = dose: 400.0 mg/kg/injection, schedule: Q04DX003 (ip), vehicle: saline
[23] = dose: 50.0 mg/kg/injection, schedule: Q01DX009 (ip), vehicle: saline
[24] = dose: 400.0 mg/kg/injection, schedule: Q04DX003 (ip), vehicle: saline with Tween-80

Measured: T/C

O=C1OC(=O)C2C3C=CC(O3)C12 (stereo not drawn)
inactive: dose: 6.25 mg/kg/injection, schedule: Q01DX009 (ip), vehicle: saline 97 % of control | dose: 10.0 mg/kg/injection, schedule: Q04DX003 (ip), vehicle: saline with Tween-80 96 % of control | [1] 111 % of control | dose: 12.5 mg/kg/injection, schedule: Q01DX009 (ip), vehicle: saline 96 % of control | dose: 20.0 mg/kg/injection, schedule: Q04DX003 (ip), vehicle: saline with Tween-80 100 % of control | [2] 108 % of control | [3] 95 % of control | dose: 40.0 mg/kg/injection, schedule: Q04DX003 (ip), vehicle: saline with Tween-80 94 % of control | [4] 95 % of control

Cc1ccc(S(=O)(=O)Nc2ncc([N+](=O)[O-])s2)cc1
inactive: [1] 101 % of control | [2] 101 % of control | [4] 98 % of control and 90 % of control

CC(C)c1cc(C(C)C)c(S(=O)(=O)C2CC2c2ccccc2)c(C(C)C)c1 (stereo not drawn)
inactive: [5] 112 % of control | [6] 93 % of control | [7] 91 % of control

O=C(O)Cc1cccc(=O)n1Cc1ccccc1
inactive: dose: 75.0 mg/kg/injection, schedule: Q04DX003 (ip), vehicle: Klucel (hydroxypropylcellulose) (HPC) 98 % of control | dose: 150.0 mg/kg/injection, schedule: Q04DX003 (ip), vehicle: Klucel (hydroxypropylcellulose) (HPC) 100 % of control | dose: 300.0 mg/kg/injection, schedule: Q04DX003 (ip), vehicle: Klucel (hydroxypropylcellulose) (HPC) 102 % of control

Cc1ccc(C2CCCCC2OS(C)(=O)=O)cc1 (stereo not drawn)
inactive: [8] 95 % of control | [9] 92 % of control | [10] 97 % of control

CC12C=CC3(CCC4C(C)(C)C(O)C(=O)CC4(C)C3CC1=O)C2 (stereo not drawn)
inactive: [11] 105 % of control | [12] 101 % of control | [13] 97 % of control | [14] 101 % of control | [15] 107 % of control | [16] 98 % of control

COC(=O)c1cc2ccncc2c2sc3ccccc3c12
inactive: [17] 97 % of control | [18] 90 % of control | [19] 93 % of control | [20] 92 % of control | [21] 95 % of control | [22] 90 % of control

c1ccc2c(c1)OCCOCCOc1ccccc1OCCOCCO2
inactive: [17] 98 % of control and 89 % of control | [18] 94 % of control and 92 % of control | [19] 101 % of control and 92 % of control | [20] 93 % of control and 92 % of control | [21] 94 % of control and 91 % of control | [22] 89 % of control and 90 % of control

CCCCCCCCCCCCCCCC[N+]1(C)CCN(SN2CC[N+](C)(CCCCCCCCCCCCCCCC)CC2)CC1
inactive: [3] 98 % of control | [23] 105 % of control | [18] 86 % of control

COc1cc(C(=O)NOCc2cc3c(cc2Cl)OCO3)cc(OC)c1OC
inactive: dose: 200.0 mg/kg/injection, schedule: Q04DX003 (ip), vehicle: saline sonified 92 % of control | dose: 400.0 mg/kg/injection, schedule: Q04DX003 (ip), vehicle: saline sonified 90 % of control

CCCCCCCCCCCCCCCCCC(=O)OCC(=O)C(OC(=O)CCCCCCCCCCCCCCCCC)C(OC(=O)CCCCCCCCCCCCCCCCC)C(COC(=O)CCCCCCCCCCCCCCCCC)OC(=O)CCCCCCCCCCCCCCCCC (stereo not drawn)
inactive: dose: 100.0 mg/kg/injection, schedule: Q01DX001 (ip), vehicle: other 95 % of control | dose: 200.0 mg/kg/injection, schedule: Q01DX001 (ip), vehicle: other 98 % of control | dose: 400.0 mg/kg/injection, schedule: Q01DX001 (ip), vehicle: other 93 % of control

Cc1ccc(Oc2ccc(C(=O)O)cc2)cc1
inactive: [12] 96 % of control | [14] 102 % of control | [16] 103 % of control

CC(=O)OC1CCC2(C)C(=CC=C3C2CCC2(C)C3CCC2C(C)CCCC(C)C)C1 (stereo not drawn)
inactive: dose: 100.0 mg/kg/injection, schedule: Q01DX001 (ip), vehicle: Klucel (hydroxypropylcellulose) (HPC) 97 % of control | dose: 200.0 mg/kg/injection, schedule: Q01DX001 (ip), vehicle: Klucel (hydroxypropylcellulose) (HPC) 87 % of control | dose: 400.0 mg/kg/injection, schedule: Q01DX001 (ip), vehicle: Klucel (hydroxypropylcellulose) (HPC) 87 % of control

Cc1cc2c(cc1C)C(=O)CCC2
inactive: dose: 100.0 mg/kg/injection, schedule: Q01DX001 (ip), vehicle: saline with Tween-80 97 % of control | dose: 100.0 mg/kg/injection, schedule: Q01DX009 (ip), vehicle: saline with Tween-80 109 % of control | dose: 100.0 mg/kg/injection, schedule: Q04DX002 (ip), vehicle: saline with Tween-80 88 % of control | dose: 100.0 mg/kg/injection, schedule: Q04DX003 (ip), vehicle: saline with Tween-80 97 % of control | dose: 200.0 mg/kg/injection, schedule: Q01DX001 (ip), vehicle: saline with Tween-80 97 % of control | dose: 200.0 mg/kg/injection, schedule: Q01DX009 (ip), vehicle: saline with Tween-80 109 % of control | dose: 200.0 mg/kg/injection, schedule: Q04DX002 (ip), vehicle: saline with Tween-80 90 % of control | dose: 200.0 mg/kg/injection, schedule: Q04DX003 (ip), vehicle: saline with Tween-80 98 % of control | dose: 400.0 mg/kg/injection, schedule: Q01DX001 (ip), vehicle: saline with Tween-80 91 % of control | dose: 400.0 mg/kg/injection, schedule: Q01DX009 (ip), vehicle: saline with Tween-80 115 % of control | dose: 400.0 mg/kg/injection, schedule: Q04DX002 (ip), vehicle: saline with Tween-80 90 % of control | [24] 95 % of control

Cc1cc(C)c(S(=O)(=O)Cc2cc(Cl)cc(Cl)c2O)c(C)c1
inactive: [23] 86 % of control | dose: 50.0 mg/kg/injection, schedule: Q04DX003 (ip), vehicle: acetone 93 % of control | [5] 88 % of control | [17] 105 % of control | dose: 100.0 mg/kg/injection, schedule: Q04DX003 (ip), vehicle: acetone 89 % of control | [6] 87 % of control | [19] 91 % of control | dose: 200.0 mg/kg/injection, schedule: Q04DX003 (ip), vehicle: acetone 91 % of control

CC(=O)Nc1cc(NC(C)=O)cc(N(CCO)CCO)c1
inactive: dose: 25.0 mg/kg/injection, schedule: Q01DX009 (ip), vehicle: water 97 % of control | dose: 50.0 mg/kg/injection, schedule: Q01DX009 (ip), vehicle: water 100 % of control | dose: 100.0 mg/kg/injection, schedule: Q01DX009 (ip), vehicle: water 106 % of control | dose: 400.0 mg/kg/injection, schedule: Q01DX009 (ip), vehicle: water 106 % of control

C[Si](C)(C)Oc1cc(N=NNC2=CC(=O)c3ccccc3C2=O)c(O)c2ccccc12
inactive: dose: 12.5 mg/kg/injection, schedule: Q04DX003 (ip), vehicle: saline with Tween-80 93 % of control | dose: 25.0 mg/kg/injection, schedule: Q04DX003 (ip), vehicle: saline with Tween-80 93 % of control | dose: 50.0 mg/kg/injection, schedule: Q04DX003 (ip), vehicle: saline with Tween-80 94 % of control | [24] 97 % of control

CCN(CC)c1ccc(/C=N\NC(=O)CCCC(=O)N/N=C/c2ccc(N(CC)CC)cc2)cc1
inactive: dose: 50.0 mg/kg/injection, schedule: Q01DX001 (ip), vehicle: saline 102 % of control | [5] 100 % of control | [6] 96 % of control | [7] 100 % of control

O=C(O)CCCC(=O)CCCC(=O)O
inactive: [5] 98 % of control | [6] 93 % of control | [7] 104 % of control

CCOC(=O)C(C)Oc1cc(C)c(Cl)cc1Cl (stereo not drawn)
inactive: dose: 50.0 mg/kg/injection, schedule: Q01DX001 (ip), vehicle: carboxymethylcellulose (CMC) 96 % of control | [8] 96 % of control | [9] 107 % of control | [10] 107 % of control

CCc1ccccc1NC(=O)Nc1ccccc1OC
inactive: [11] 92 % of control | [12] 93 % of control | [13] 94 % of control | [14] 93 % of control | [15] 100 % of control | [16] 90 % of control
